Data: US7105520B2, “Phenylalanine derivatives” (Ajinomoto Co., Inc., priority 2000, dated 2006)

How the values were obtained:
[1] = biological target: T1, integrin α 4β1 (Homo sapiens, UniProt P05556+P13612); assay: VCAM antagonistic activity (VCAM-1/α4β1 binding assay), Jurkat cells binding to VCAM-1; type: cell-based; conditions: Jurkat cells (human T cells) binding to recombinant human VCAM-1; room temperature, 30 minutes; read-out: VCAM-1/α 4 β 1 linking antagonization activity IC50
T1 construct: cell strain Jurkat (ATCC TIB-152) of human T cells, known to express integrin α 4β1; host or cells: Jurkat (human T cell line)
T1 sequence (P05556 21-798, one chain of several): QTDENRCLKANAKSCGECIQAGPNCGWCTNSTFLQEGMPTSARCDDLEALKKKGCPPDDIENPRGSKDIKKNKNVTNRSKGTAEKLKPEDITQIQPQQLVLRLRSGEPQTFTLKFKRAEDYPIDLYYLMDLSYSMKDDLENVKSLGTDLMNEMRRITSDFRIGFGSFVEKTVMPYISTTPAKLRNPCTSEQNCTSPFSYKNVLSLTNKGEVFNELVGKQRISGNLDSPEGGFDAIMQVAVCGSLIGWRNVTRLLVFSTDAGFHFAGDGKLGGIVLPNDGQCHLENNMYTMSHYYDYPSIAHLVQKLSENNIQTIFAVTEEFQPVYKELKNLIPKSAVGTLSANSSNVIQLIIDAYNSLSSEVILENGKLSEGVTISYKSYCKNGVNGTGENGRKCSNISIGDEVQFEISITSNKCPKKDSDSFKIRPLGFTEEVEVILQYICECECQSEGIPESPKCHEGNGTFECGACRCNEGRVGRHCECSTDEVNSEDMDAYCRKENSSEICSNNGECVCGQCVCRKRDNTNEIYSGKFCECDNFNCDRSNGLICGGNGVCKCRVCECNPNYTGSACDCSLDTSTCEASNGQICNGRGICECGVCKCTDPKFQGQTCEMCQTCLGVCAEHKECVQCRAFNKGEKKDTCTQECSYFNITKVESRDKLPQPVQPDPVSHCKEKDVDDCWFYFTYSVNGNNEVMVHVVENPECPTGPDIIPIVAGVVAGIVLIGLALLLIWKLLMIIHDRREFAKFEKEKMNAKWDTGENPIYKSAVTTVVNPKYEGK
Procedure: (Test Example) VCAM Antagonistic Activity (VCAM-1/α4β1 Binding Assay):
The capacity of a test substance antagonistic to the binding of cell strain Jurkat (ATCC TIB-152) of human T cells, known to express integrin α 4β1, to VCAM-1 was determined.
(§1) 100 μl/well of a solution (500 ng/ml) of recombinant human VCAM-1 (R & D systems) solution diluted with buffer A (0.1 M NaHCO3, pH 9.6) was added to a micro titer plate having 96 wells (Nunc Maxisorp). After the incubation at 4° C. overnight, unbound VCAM-1 was removed by washing once with PBS. After completion of the washing, a buffer (buffer B) obtained by diluting Block Ace® (Dainippon Pharmaceutical Co., Ltd.) with PBS to ¼ concentration was added in an amount of 150 μl/well. After the incubation at room temperature for 1 hour, buffer B was removed and the plate was washed with PBS once.
Jurkat cells were washed with Dulbecco modified Eagle medium (SIGMA, hereinafter referred to as “DMEM”) twice and then incubated in DMEM containing 10 μg/ml of Calcein-AM (Wako Pure Chemical Industries, Ltd.) at 37° C. in dark place for 30 minutes to label with fluorescence. The cells were again suspended in a binding buffer (20 mM HEPES, DMEM containing 0.1% BSA).
(§2) 50 μl of a test substance of various concentrations obtained by the dilution with the binding buffer was added to the plate. Immediately thereafter, 50 μl (final volume: 100 μl/well) of the fluorescent Jurkat cells (4×10^6 cells/ml) were added thereto, and they were incubated at room temperature for 30 minutes. After the shaking on a plate shaker (IKA MTS-4) at 800 rpm for 30 seconds, the solution was immediately removed to remove the unbound cells. The fluorescence quantity of the bound cells remaining in the wells was determined with a fluorescent plate reader (Wallac 1420 ARVO multi-label counter) (filter excitation wave length: 485 nm, emission wave length: 535 nm). The fluorescent strength thus obtained is proportional to the number of Jurkat cells bound to VCAM-1 and remaining on the plate. The binding rate of each test material in various concentrations was determined while the fluorescent strength of the test material-free well was determined to be 100%. The concentration IC50 for the 50% binding inhibition was calculated.

[2] = biological target: T2, integrin α 4β7 (Homo sapiens, UniProt P13612+P26010); assay: VCAM antagonistic activity (VCAM-1/α4β7 binding assay), RPMI-8866 cells binding to VCAM-1; type: cell-based; conditions: RPMI-8866 cells (human B cells) binding to recombinant human VCAM-1; binding buffer containing 4 mM of MnCl2; room temperature, 30 minutes; read-out: VCAM-1/α 4 β 7 linking antagonization activity IC50
T2 construct: lymphoma cell strain RPMI-8866 of human B cells, known to express integrin α 4β7; endogenous in cells; host or cells: RPMI-8866 (human B lymphoma cell line)
T2 sequence (P13612 34-1032): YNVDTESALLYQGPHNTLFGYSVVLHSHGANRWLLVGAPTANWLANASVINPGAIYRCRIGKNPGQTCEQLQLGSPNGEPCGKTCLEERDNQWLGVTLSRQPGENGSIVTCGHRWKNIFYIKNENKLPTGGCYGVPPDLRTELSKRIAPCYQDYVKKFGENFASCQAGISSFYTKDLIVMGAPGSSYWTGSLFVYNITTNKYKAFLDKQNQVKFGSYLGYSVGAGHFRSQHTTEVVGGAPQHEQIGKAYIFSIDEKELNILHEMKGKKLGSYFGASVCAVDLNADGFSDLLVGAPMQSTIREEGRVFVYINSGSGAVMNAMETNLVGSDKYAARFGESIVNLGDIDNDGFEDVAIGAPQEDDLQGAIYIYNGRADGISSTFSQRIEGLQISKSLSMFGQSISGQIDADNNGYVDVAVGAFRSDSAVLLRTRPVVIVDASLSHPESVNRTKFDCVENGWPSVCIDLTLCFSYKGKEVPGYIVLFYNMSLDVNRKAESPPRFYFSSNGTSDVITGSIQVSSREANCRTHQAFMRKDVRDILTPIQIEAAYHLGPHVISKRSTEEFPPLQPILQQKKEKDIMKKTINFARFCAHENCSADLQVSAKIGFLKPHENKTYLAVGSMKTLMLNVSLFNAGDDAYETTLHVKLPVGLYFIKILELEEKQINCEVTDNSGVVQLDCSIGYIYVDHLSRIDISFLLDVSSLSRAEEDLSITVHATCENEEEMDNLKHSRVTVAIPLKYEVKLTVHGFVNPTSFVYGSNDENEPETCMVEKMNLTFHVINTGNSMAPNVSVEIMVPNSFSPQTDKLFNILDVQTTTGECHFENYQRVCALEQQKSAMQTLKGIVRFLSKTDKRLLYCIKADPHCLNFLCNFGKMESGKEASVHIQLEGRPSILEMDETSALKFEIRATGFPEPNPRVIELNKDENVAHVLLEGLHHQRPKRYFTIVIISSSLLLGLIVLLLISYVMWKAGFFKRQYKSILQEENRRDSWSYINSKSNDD
T2 sequence (P26010 20-798): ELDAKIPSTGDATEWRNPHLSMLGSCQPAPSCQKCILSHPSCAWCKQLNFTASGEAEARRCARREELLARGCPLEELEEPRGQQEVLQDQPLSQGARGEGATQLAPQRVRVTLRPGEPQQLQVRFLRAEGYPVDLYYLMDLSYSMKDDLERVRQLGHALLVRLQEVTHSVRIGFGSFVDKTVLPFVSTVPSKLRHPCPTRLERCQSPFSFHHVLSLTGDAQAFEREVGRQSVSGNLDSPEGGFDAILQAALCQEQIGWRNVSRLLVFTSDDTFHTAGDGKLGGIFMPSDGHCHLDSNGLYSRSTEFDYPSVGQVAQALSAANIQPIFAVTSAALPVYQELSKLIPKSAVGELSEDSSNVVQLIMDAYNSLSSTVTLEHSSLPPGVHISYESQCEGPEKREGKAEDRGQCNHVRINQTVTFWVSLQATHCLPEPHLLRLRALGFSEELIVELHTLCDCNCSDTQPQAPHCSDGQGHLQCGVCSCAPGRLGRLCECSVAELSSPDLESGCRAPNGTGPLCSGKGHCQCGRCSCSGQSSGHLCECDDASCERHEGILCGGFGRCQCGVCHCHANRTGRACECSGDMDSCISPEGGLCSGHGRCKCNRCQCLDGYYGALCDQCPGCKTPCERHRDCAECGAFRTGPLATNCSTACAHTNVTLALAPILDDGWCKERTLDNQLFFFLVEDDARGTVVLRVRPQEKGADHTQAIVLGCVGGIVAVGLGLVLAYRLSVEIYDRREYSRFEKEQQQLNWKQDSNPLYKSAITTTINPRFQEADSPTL
Procedure: (Test Example) VCAM Antagonistic Activity (VCAM-1/α4β7 Binding Assay):
The capacity of a test substance antagonistic to the binding of lymphoma cell strain RPMI-8866 of human B cells, known to express integrin α 4β7, to VCAM-1 was determined.
as §1
RPMI-8866 cells were incubated in DMEM containing 10 μg/ml of Calcein-AM (Wako Pure Chemical Industries, Ltd.) at 37° C. for 30 minutes to label with fluorescence. The cells were again suspended in a binding buffer (20 mM HEPES, DMEM containing 0.1% BSA) containing 4 mM of MnCl2.
as §2, with “RPMI-8866” for “Jurkat”

IC50 [1]	IC50 [2]	Structure (SMILES)
5500 nM	120 nM	CC(C)NCCCN(c1ccc([N+](=O)[O-])c(C(=O)NC(Cc2ccc(OCc3c(Cl)cccc3Cl)cc2)C(=O)O)c1)C(C)C (stereo not shown) [Example 3]
2400 nM	37 nM	CC(C)NCCN(c1ccc([N+](=O)[O-])c(C(=O)NC(Cc2ccc(NC(=O)c3snnc3-c3ccccc3)cc2)C(=O)O)c1)C(C)C (stereo not shown) [Example 26]
4000 nM	750 nM	O=C(NC(Cc1ccc(OCc2c(Cl)cccc2Cl)cc1)C(=O)O)c1ccc(N2CCNCC2)c([N+](=O)[O-])c1 (stereo not shown) [Example 25]
4600 nM	220 nM	O=C(NC(Cc1ccc(OCc2c(Cl)cccc2Cl)cc1)C(=O)O)c1cc(N2CCC(O)CC2)ccc1[N+](=O)[O-] (stereo not shown) [Example 22]
2200 nM	140 nM	O=C(NC(Cc1ccc(OCc2c(Cl)cccc2Cl)cc1)C(=O)O)c1cc(N2CCOCC2)ccc1[N+](=O)[O-] (stereo not shown) [Example 18]
23 nM	1.1 nM	CSc1ncc(Cl)c(C(=O)Nc2ccc(C[C@H](NC(=O)c3cc(N(CCNC(C)C)C(C)C)ccc3[N+](=O)[O-])C(=O)O)cc2)n1 [Example 28]
3300 nM	160 nM	O=C1CCN(c2ccc([N+](=O)[O-])c(C(=O)NC(Cc3ccc(OCc4c(Cl)cccc4Cl)cc3)C(=O)O)c2)CC1 (stereo not shown) [Example 21]
87 nM	5.3 nM	CSc1ncc(Cl)c(C(=O)Nc2ccc(C[C@H](NC(=O)c3cc(N(CCN(C(C)=O)C(C)C)C(C)C)ccc3[N+](=O)[O-])C(=O)O)cc2)n1 [Example 30]
4000 nM	750 nM	O=C(NC(Cc1ccc(OCc2c(Cl)cccc2Cl)cc1)C(=O)O)c1cc(N2CCNCC2)ccc1[N+](=O)[O-] (stereo not shown) [Example 8]
4000 nM	100 nM	CC(C)NCCN(c1ccc([N+](=O)[O-])c(C(=O)NC(Cc2ccc(OCc3c(Cl)cccc3Cl)cc2)C(=O)O)c1)C(C)C (stereo not shown) [Example 2, N-(3-(N-isopropylaminoethyl-N′-isopropyl)amino-6-nitrobenzoyl)-O-(2,6-dichlorobenzyl)tyrosine]
4100 nM	360 nM	CCCN(C)c1ccc([N+](=O)[O-])c(C(=O)NC(Cc2ccc(OCc3c(Cl)cccc3Cl)cc2)C(=O)O)c1 (stereo not shown) [Example 12]
4900 nM	140 nM	CC1CN(c2ccc([N+](=O)[O-])c(C(=O)NC(Cc3ccc(OCc4c(Cl)cccc4Cl)cc3)C(=O)O)c2)C(C)CN1 (stereo not shown) [Example 5]
27 nM	1.2 nM	CSc1ncc(Cl)c(C(=O)Nc2ccc(CC(NC(=O)c3cc(N(CCNC(C)C)C(C)C)ccc3[N+](=O)[O-])C(=O)O)cc2)n1 (stereo not shown) [Example 27]
9400 nM	160 nM	CCNCCN(CC)c1ccc([N+](=O)[O-])c(C(=O)NC(Cc2ccc(OCc3c(Cl)cccc3Cl)cc2)C(=O)O)c1 (stereo not shown) [Example 7]
2200 nM	66 nM	CN(CCO)c1ccc([N+](=O)[O-])c(C(=O)NC(Cc2ccc(OCc3c(Cl)cccc3Cl)cc2)C(=O)O)c1 (stereo not shown) [Example 23]
3700 nM	120 nM	CCCNCCCCN(CCC)c1ccc([N+](=O)[O-])c(C(=O)NC(Cc2ccc(OCc3c(Cl)cccc3Cl)cc2)C(=O)O)c1 (stereo not shown) [Example 4]
4800 nM	150 nM	CCNC/C=C/CN(CC)c1ccc([N+](=O)[O-])c(C(=O)NC(Cc2ccc(OCc3c(Cl)cccc3Cl)cc2)C(=O)O)c1 (stereo not shown) [Example 6]
